# Measurements: US12441739B2, “Glucagon receptor antagonist and use thereof” (LANZHOU UNIVERSITY, priority 2021, dated 2025)
# Several values for one entry are separate records, joined by “and”; a condition that tells them apart may be missing. Identical values can stand only once.
# Molecular target: T1, human glucagon receptor (hGCGR) (Homo sapiens, UniProt P47871)
# T1 construct: host or cells: HEK293
# Test: HTRF second messenger cAMP response experiment (called cell viability test) in HEK293 cells with glucagon peptide segment
# Format: cell-based
# Settings: for Inhibition percentage: HEK293 cells, glucagon peptide segment, HTRF cAMP, triplicate columns
# Method: In order to determine the antagonistic activity of the compound A on the glucagon receptor in the above embodiments, a cell viability test is carried out. The specific implementation is as follows.
# A known human glucagon receptor (hGCGR) antagonist drug is selected as a positive control, and the compound A in the above embodiments, a glucagon peptide segment (that is, human full-length glucagon), and human embryonic kidney cells containing target receptor molecules are mixed. The glucagon peptide segment binds to hGCGR to activate the hGCGR signaling pathway and release the second messenger cAMP. The compound A acts as an antagonist to inhibit the activity of hGCGR.
# In an exemplary embodiment, a known hGCGR antagonist drug (L-168,049) is selected as a positive control. […] In addition, in view of the human glucagon receptor on the cell membrane of human embryonic kidney cells HEK293, HEK293 is used to test the drug activity of the human glucagon antagonist. In this embodiment, different concentrations of compound A of the present disclosure and the positive control are respectively mixed with glucagon peptide segments and HEK293 cells, the second messenger cAMP is detected through homogeneous time resolved fluorescence (HTRF), and a half maximal inhibitory concentration value of each compound is calculated according to the intensity value of HTRF.
# (§1) In an exemplary embodiment, the activity of the compound A is tested using the HTRF technique. Specifically, after activation of the glucagon receptor by the glucagon peptide segment, the second messenger cAMP is released from the glucagon receptor cells, the second messenger cAMP may be detected by HTRF, and the half maximal inhibitory concentration (IC50) of the tested compound may be calculated according to the fluorescence intensity.
# In an exemplary embodiment, 11 identical concentration gradients are set for the compounds A1 and A2 respectively. The activities of the compounds A1 and A2 are determined by the HTRF second messenger cAMP response experiment in triplicate.
# Step S910. Select an antagonist drug of hGCGR as a positive control, and mix each target drug small molecule, a glucagon peptide segment, and human embryonic kidney cells containing the target receptor molecule. The glucagon peptide segment binds to hGCGR to activate the hGCGR signaling pathway and release the second messenger cAMP. The target drug molecule acts as an antagonist to inhibit the activity of hGCGR.
# In an exemplary embodiment, an antagonist drug (such as L-168,049) of hGCGR is selected as a positive control. In addition, in view of the human glucagon receptor on the cell membrane of human embryonic kidney cells (such as HEK293), HEK293 may be used to test the drug activity of the human glucagon antagonist. The target drug small molecule, the glucagon peptide segment, and the HEK293 cells containing the target receptor molecule are mixed. The glucagon peptide segment is used to bind to hGCGR to activate the hGCGR signaling pathway and promote the release of the second messenger cAMP. The target drug molecule acts as an antagonist to inhibit the activity of hGCGR.
# Step S920. Detect the second messenger cAMP through HTRF, and determine a half maximal inhibitory concentration value of each target drug small molecule according to an intensity value of HTRF.
# as §1, with “each target drug small molecule (such as 30 target drug small molecules shown in Table 2)” for “the compound A”, “tested by” for “tested”, “drug molecule” for “tested compound”, “intensity. […]” for “intensity.”
# [1] = concentration gradient LogM −8.339849
# T1 sequence (P47871 26-477): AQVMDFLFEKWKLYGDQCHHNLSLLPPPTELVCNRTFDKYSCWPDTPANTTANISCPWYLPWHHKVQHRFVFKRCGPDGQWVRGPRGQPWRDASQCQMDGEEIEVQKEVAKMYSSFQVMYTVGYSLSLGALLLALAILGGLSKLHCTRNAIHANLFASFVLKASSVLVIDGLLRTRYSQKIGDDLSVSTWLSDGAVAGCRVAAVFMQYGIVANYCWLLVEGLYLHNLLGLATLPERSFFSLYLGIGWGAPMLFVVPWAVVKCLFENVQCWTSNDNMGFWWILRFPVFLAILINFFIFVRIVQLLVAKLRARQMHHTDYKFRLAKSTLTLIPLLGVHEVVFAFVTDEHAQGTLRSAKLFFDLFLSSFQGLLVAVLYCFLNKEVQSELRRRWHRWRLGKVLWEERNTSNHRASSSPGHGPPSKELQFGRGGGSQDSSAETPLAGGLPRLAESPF
compound,measurement,setting,value
NS(=O)(=O)c1ccc(NC(=S)NNC(=S)NC2CCCCC2)cc1 [Compound C1],IC50,,> 10 µM
same,Inhibition percentage,concentration gradient LogM −5.477121,−14.4564% and −9.717% and −14.5956%
same,Inhibition percentage,[1],23.36% and 11.78% and 18.98%
O=C(NCCCCCCNC(=O)NCc1cccnc1)NCc1cccnc1 [Compound C5],IC50,,> 10 µM
O=C(COC(=O)CCNS(=O)(=O)c1ccc(Cl)cc1)NC(=O)NCc1ccco1 [Compound C18],IC50,,> 10 µM
same,Inhibition percentage,concentration gradient LogM −5.954243,−6.593% and −12.6979% and −7.936%
O=C(CCCCC(=O)NNC(=S)Nc1ccc(Br)cc1)NNC(=S)Nc1ccc(Br)cc1 [Compound C6],IC50,,> 10 µM
same,Inhibition percentage,concentration gradient LogM −7.862728,−28.7792% and −19.4453% and −24.9236%
O=C(CNC(=O)NCCCOC1CCCCC1)Nc1ccc(F)c(F)c1 [Compound C19],IC50,,> 10 µM
COc1cc(NC(=O)CNC(=O)CNC(=O)c2cccs2)c(OC)cc1Cl [Compound C26],IC50,,> 10 µM
CS(=O)(=O)NCCOc1ccc(S(=O)(=O)NCCOc2ccccc2)cc1 [Compound C28],IC50,,> 10 µM
CCC(=O)NC(=S)Nc1ccc(NC(=S)NC(=O)c2cccc(OC)c2)cc1 [Compound C9],IC50,,> 10 µM
same,Inhibition percentage,concentration gradient LogM −7.385606,3.734% and −2.05% and −2.9843%
same,Inhibition percentage,concentration gradient LogM −8.81697,8.521% and 5.537% and 14.34%
CNC(=O)Cc1ccccc1NC(=O)NCCC(=O)NC1CCCC1 [Compound C24],IC50,,> 10 µM
O=C(CCNC(=O)NC1CCCCC1)NNc1ccccc1C(F)(F)F [Compound C27],IC50,,> 10 µM
same,Inhibition percentage,[1],−24.7315% and −29.8299% and −20.459%
COc1ccc(C(=O)NC(=S)Nc2ccc(NC(=S)NC(C)=O)cc2)cc1Cl [Compound C3],IC50,,> 10 µM
same,Inhibition percentage,concentration gradient LogM −6.908485,5.05% and 4.705% and 12.02%
Cc1ccc(-c2csc(NC(=O)c3ccc4c(c3)NC(=O)CS4)n2)c(C)c1 [Compound C23],Inhibition percentage,concentration gradient LogM −5,75.66% and 75.14% and 57.58%
O=C(CSc1nc2ccccc2[nH]1)NC(=O)Nc1ccc2c(c1)OCO2 [Compound C21],IC50,,> 10 µM
